Test results taken from ChEMBL document CHEMBL1201862, “PubChem BioAssay data set” (2004).
Activity calls are given as the source filed them. *1 amine or outer side, *2 acyl side, *3 side chain or, on linkers, in order; H or OH if unused. Where a SMILES comes first, the peptide text is derived from it. [ ]: non-standard residue; d: D form. X2 = CCC[C@@H](N[*:1])[C@H](C)C(=O)O[C@H](C(=O)[*:2])[C@@H](C)CC; X1 = CC(N[*:1])C(=O)C(C)(C)C(=O)[*:2]; NMeY = CN[C@@H](Cc1ccc(O)cc1)C(=O)O; NMeL = CN[C@@H](CC(C)C)C(=O)O; NMeV = CN[C@H](C(=O)O)C(C)C; NMeA = CN[C@@H](C)C(=O)O

Assays:
[1] = tested on: BJ; experiment: BJ-TERT fibroblast viability loss – cell-based, RAS-independent, luminescence, dose response (AID 1933); type: functional; conditions: Homo sapiens
[2] = tested on: BJ; experiment: cells; type: functional, cell-based; conditions: Homo sapiens
[3] = microbe, parasite or virus in culture; type: functional; conditions: Mycobacterium tuberculosis
[4] = tested on: BJ; experiment: BJ-TERT-LT-ST fibroblast viability loss – cell-based, RAS-independent, luminescence, dose response (AID 1935); type: functional; conditions: Homo sapiens;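 also: BJ fibroblasts immortalized with TERT plus LT and ST oncogenes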
[5] = DRD fibroblast viability loss – cell-based, non-viral oncogenic, luminescence, dose response (AID 1934); type: functional; conditions: Homo sapiens
[6] = HEK-293T viability loss after treatment – luminescence, T-cell screen hits, cytotoxicity control for TCR NF-kB inhibitor project, dose response (AID 489026); type: functional, cell-based;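 also: cells exposed to compound about 14 hours before the viability readout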
[7] = target: T1, Microphthalmia-associated transcription factor (Homo sapiens, UniProt O75030); experiment: reducers of TRPM1 reporter luminescence, concentration series – cell-based, SK-MEL-5, cherry-picked, set 3, MITF inhibitor project, dose response (AID 493073); type: functional;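 also: SK-MEL-5 melanoma cells with luciferase driven by the MITF target TRPM1 promoter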
T1 sequence (O75030 whole entry): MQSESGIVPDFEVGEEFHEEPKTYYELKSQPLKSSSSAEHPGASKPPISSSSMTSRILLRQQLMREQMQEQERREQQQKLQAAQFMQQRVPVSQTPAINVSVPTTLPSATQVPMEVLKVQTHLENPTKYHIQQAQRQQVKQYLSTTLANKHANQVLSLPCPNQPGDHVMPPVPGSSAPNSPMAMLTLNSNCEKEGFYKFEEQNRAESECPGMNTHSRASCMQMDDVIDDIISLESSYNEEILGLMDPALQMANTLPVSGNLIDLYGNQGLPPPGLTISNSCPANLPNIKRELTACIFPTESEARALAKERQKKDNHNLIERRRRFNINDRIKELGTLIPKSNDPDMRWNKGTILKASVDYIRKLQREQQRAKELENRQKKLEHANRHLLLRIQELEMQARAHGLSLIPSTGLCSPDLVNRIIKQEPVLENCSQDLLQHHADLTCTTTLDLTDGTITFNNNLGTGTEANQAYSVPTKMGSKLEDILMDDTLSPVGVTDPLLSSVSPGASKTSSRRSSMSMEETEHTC

[8] = target: T2, Replicative DNA helicase DnaB (Mycobacterium tuberculosis, UniProt P9WMR3); experiment: DnaB intein splicing inhibitors, dose response, biochemical, cell-free fluorescence (AID 449749); type: functional
T2 sequence (P9WMR3 whole entry): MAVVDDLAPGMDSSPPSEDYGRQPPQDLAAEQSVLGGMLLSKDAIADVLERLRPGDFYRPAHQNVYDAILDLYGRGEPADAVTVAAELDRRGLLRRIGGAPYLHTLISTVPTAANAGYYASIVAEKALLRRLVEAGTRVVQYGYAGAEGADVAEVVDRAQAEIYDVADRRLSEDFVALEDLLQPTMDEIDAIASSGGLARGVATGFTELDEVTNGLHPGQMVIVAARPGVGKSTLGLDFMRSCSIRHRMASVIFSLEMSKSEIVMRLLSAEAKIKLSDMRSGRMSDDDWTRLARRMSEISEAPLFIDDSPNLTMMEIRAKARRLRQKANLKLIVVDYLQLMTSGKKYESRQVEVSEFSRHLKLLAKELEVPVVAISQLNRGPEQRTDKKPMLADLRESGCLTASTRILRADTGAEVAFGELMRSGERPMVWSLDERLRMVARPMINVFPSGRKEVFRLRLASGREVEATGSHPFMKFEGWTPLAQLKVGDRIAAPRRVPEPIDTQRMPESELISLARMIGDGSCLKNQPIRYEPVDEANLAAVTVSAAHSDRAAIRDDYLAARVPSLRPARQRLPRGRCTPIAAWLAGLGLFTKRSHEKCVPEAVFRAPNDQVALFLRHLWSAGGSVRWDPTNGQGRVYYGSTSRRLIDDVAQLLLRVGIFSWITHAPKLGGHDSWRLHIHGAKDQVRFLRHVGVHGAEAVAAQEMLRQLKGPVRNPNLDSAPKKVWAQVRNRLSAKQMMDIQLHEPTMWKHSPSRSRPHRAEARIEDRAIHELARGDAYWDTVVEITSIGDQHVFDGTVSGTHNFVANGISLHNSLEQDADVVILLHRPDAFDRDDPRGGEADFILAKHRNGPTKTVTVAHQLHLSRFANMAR

[9] = target: T3, Protein RecA (Mycobacterium tuberculosis, UniProt P9WHJ3); experiment: Fluorescence Cell-Free Homogeneous Dose Retest to Identify Inhibitors of RecA-Intein Splicing Activity. [Related pubchem assays (depositor defined):AID2097, AID2223, AID489010, AID492950]; type: functional
T3 sequence (P9WHJ3 whole entry): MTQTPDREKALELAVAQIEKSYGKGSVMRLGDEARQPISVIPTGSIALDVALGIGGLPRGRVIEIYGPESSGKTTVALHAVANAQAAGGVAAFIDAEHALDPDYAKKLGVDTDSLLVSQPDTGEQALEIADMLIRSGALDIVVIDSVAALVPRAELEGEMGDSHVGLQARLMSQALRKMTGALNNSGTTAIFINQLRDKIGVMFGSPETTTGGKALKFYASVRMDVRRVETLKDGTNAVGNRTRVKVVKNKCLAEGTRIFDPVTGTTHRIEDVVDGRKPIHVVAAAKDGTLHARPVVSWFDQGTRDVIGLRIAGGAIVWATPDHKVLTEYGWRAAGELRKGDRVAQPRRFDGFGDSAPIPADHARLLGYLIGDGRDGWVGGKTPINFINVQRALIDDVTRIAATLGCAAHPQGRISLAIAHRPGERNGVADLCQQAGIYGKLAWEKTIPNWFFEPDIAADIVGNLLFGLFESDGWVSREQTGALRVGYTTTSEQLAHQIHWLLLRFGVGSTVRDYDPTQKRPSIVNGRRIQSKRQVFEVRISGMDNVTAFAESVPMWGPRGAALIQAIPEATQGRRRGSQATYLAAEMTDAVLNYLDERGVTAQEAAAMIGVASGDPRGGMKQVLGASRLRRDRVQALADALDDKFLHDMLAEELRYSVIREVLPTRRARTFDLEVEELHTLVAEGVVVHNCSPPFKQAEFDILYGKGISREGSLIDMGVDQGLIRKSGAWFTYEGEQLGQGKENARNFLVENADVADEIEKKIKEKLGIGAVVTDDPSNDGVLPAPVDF

[10] = target: T4, Short transient receptor potential channel 4 (Mus musculus, UniProt Q9QUQ5); experiment: block of DAMGO-driven TRPC4 calcium entry – cell-based, HEK293 TRPC4/mu-opioid, Fluo-4 calcium, dose response (AID 434942); type: functional;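 also: potency of inhibitors blocking the TRPC4 calcium response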
T4 sequence (Q9QUQ5 whole entry): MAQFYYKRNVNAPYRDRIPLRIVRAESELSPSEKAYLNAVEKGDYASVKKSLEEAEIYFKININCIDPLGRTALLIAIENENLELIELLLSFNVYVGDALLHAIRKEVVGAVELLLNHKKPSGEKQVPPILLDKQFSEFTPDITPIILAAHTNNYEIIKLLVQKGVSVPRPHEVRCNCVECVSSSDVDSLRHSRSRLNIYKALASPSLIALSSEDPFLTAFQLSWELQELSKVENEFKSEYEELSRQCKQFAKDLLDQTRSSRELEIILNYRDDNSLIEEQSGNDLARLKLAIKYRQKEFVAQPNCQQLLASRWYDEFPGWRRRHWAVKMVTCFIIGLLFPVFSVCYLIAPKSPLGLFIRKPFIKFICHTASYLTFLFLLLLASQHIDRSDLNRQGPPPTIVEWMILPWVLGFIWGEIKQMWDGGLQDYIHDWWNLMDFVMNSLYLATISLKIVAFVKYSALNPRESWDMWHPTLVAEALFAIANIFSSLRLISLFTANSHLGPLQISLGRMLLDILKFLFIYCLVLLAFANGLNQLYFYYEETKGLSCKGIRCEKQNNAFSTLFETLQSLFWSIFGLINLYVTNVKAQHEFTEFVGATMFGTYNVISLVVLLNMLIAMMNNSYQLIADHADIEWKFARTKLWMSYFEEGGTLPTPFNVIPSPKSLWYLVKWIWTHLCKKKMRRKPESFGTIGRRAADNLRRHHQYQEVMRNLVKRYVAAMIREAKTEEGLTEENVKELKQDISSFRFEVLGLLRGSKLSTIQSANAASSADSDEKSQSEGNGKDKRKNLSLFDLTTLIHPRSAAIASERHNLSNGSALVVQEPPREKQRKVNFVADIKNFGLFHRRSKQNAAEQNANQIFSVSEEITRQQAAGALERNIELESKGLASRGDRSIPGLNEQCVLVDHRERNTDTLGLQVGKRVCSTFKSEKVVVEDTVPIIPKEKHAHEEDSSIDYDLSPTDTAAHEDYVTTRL

[11] = target: T5, DNA repair protein RAD52 homolog (Homo sapiens, UniProt P43351); type: functional, biochemical
T5 sequence (P43351 whole entry): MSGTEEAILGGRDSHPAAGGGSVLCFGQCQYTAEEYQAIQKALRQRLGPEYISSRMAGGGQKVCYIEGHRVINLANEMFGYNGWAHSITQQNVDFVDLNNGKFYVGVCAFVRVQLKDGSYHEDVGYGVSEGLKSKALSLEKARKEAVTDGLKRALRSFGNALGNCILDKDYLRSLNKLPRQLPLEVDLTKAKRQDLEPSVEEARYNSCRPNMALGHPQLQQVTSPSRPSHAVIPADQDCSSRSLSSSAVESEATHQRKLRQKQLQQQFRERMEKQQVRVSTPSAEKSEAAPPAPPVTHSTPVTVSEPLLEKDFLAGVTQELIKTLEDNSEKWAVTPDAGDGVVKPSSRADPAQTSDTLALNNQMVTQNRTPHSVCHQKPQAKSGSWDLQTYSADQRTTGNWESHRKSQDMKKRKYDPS

[12] = tested on: Vero; experiment: cells; type: functional, cell-based; conditions: Chlorocebus sabaeus
[13] = tested on: Vero; experiment: cells; type: functional; conditions: Chlorocebus sabaeus
[14] = target: T4, Short transient receptor potential channel 4; experiment: calcium entry via TRPC4 opening agents – cell-based, HEK293 TRPC4/mu-opioid, Fluo-4 calcium, dose response (AID 434937); type: functional

## Cc1ccc2c(c1)Oc1ccc(NC(=O)CCl)cc1C(=O)N2
[1]
  EC50: 2.99 µM (active)
[2]
  EC50: 2.88 µM (inconclusive)
[3]
  CC50: 2.96 µM (active)
[4]
  EC50: 4.2 µM (inconclusive)
[5]
  EC50: 6.28 µM (active)
[6]
  IC50: 17.3 µM (active)
[7]
  AC50: 10.1 µM (active)
[8]
  AC50: 15.6 µM (active)
[9]
  EC50: 4.53 µM (active)

## CCCN(CCC)C1=CC(=[N+]2CCCC2)CC(C)(C)C1
[6]
  IC50: > 80 µM (inactive)
[7]
  AC50: 2.02 µM (active)

## COC(=O)c1[nH]c2c(c1C)C(=O)CC(c1cccc(OC)c1)C2 (stereo unspecified)
[1]
  EC50: 0.773 µM (active)
[2]
  EC50: 1.62 µM (active)
[4]
  EC50: 0.665 µM (active)
[5]
  EC50: 0.619 µM (active)
[6]
  IC50: > 80 µM (inactive)

## CCOc1ccc2c(C)nc(NC3=NC(C)=CC(C)(C)N3)nc2c1
[10]
  EC50: 1.68 µM (active)
[11]
  AC50: 4.06 µM (active)

## CC(=O)Nc1ccc(S(=O)(=O)N2CCSc3ccccc32)cc1
[6]
  IC50: > 80 µM (inactive)

## CCOc1ccccc1N(CC)C(=O)c1nn(C)c2c1CSc1ccccc1-2
[10]
  EC50: 2.99 µM (active)

## Cc1cc(N2CCN(Cc3nc(-c4ccc(Cl)cc4)oc3C)CC2)cc(C)n1
[12]
  IC50: 23.7 µM (active)
[13]
  CC50: > 25 µM (active)

## COc1cccc(-c2nn(-c3ccccc3)cc2CN(C)C(C)c2ccncn2)c1 (stereo unspecified)
[10]
  EC50: 2.99 µM (active)
[14]
  EC50: 6.68 µM (active)

## O=C(NC1CCCCC1)N1CCN(C(c2ccccc2)c2ccccc2)CC1
[10]
  EC50: 1.5 µM (active)

## CCC[C@H]1NC(=O)[C@H](C)N(C)C(=O)C(C)(C)C(=O)C(C)NC(=O)[C@H](Cc2ccc(OC)cc2)N(C)C(=O)[C@H](C(C)C)N(C)C(=O)CNC(=O)[C@H](CC(C)C)N(C)C(=O)CNC(=O)[C@H]([C@@H](C)CC)OC(=O)[C@H]1C (stereo partly specified) (cyclo(G[NMeL]G[NMeV][NMeY](Me)[X1][NMeA][X2]))
[6]
  IC50: > 80 µM (inactive)
